Source: PubChem BioAssay (NCI)
Several values for one entry are separate records, joined by “and”; a condition that tells them apart may be missing. Equal values may be shown once.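 Each compound was tested at five concentrations against cells in 96-well plates for 48 hours. Abbreviation: GI50, concentration required for 50% inhibition of growth. At the TGI there is no net growth.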

Assays:
Experiment in all cases: growth of human tumour cells (NCI), 48 h
HCT-15 colon = test system: HCT-15 colon
DU-145 prostate = test system: DU-145 prostate
MDA-N = test system: MDA-N
UACC-257 melanoma = test system: UACC-257 melanoma
PC-3 prostate = test system: PC-3 prostate
A549 NSCLC = test system: A549 NSCLC
KM20L2 colon = test system: KM20L2 colon
DMS 273 small cell lung = test system: DMS 273 small cell lung
NCI-H460 lung = test system: NCI-H460 lung
HOP-92 NSCLC = test system: HOP-92 NSCLC
UO-31 renal = test system: UO-31 renal
DMS 114 small cell lung = test system: DMS 114 small cell lung
OVCAR-5 ovarian = test system: OVCAR-5 ovarian
HOP-18 NSCLC = test system: HOP-18 NSCLC
HCT-116 colon = test system: HCT-116 colon
HT29 colon = test system: HT29 colon
MCF7 breast = test system: MCF7 breast
BT-549 breast = test system: BT-549 breast
A498 renal = test system: A498 renal
LOX IMVI melanoma = test system: LOX IMVI melanoma
SK-OV-3 ovarian = test system: SK-OV-3 ovarian
M14 melanoma = test system: M14 melanoma
UACC-62 melanoma = test system: UACC-62 melanoma
NCI-H226 lung = test system: NCI-H226 lung
LXFL 529 NSCLC = test system: LXFL 529 NSCLC
SNB-78 CNS = test system: SNB-78 CNS
SK-MEL-2 melanoma = test system: SK-MEL-2 melanoma
ACHN renal = test system: ACHN renal
T-47D breast = test system: T-47D breast
M19-MEL melanoma = test system: M19-MEL melanoma
CCRF-CEM leukemia = test system: CCRF-CEM leukemia
DLD-1 colon = test system: DLD-1 colon
K-562 leukemia = test system: K-562 leukemia
KM12 colon = test system: KM12 colon
EKVX NSCLC = test system: EKVX NSCLC
MOLT-4 leukemia = test system: MOLT-4 leukemia
OVCAR-4 ovarian = test system: OVCAR-4 ovarian
HCC-2998 colon = test system: HCC-2998 colon
SNB-19 CNS = test system: SNB-19 CNS
COLO 205 colon = test system: COLO 205 colon
U251 CNS = test system: U251 CNS
NCI-H522 lung = test system: NCI-H522 lung
SW-620 colon = test system: SW-620 colon
SN12C renal = test system: SN12C renal
HOP-62 NSCLC = test system: HOP-62 NSCLC
MDA-MB-435 = test system: MDA-MB-435
NCI-H23 lung = test system: NCI-H23 lung
SF-539 CNS = test system: SF-539 CNS
SF-268 CNS = test system: SF-268 CNS
RPMI-8226 leukemia = test system: RPMI-8226 leukemia
OVCAR-8 ovarian = test system: OVCAR-8 ovarian
SF-295 CNS = test system: SF-295 CNS
IGROV1 ovarian = test system: IGROV1 ovarian
SR leukemia = test system: SR leukemia
OVCAR-3 ovarian = test system: OVCAR-3 ovarian
MALME-3M melanoma = test system: MALME-3M melanoma
NCI/ADR-RES ovarian = test system: NCI/ADR-RES ovarian
786-0 renal = test system: 786-0 renal
CAKI-1 renal = test system: CAKI-1 renal
SK-MEL-5 melanoma = test system: SK-MEL-5 melanoma
HS 578T breast = test system: HS 578T breast
MDA-MB-231 breast = test system: MDA-MB-231 breast
RXF 393 renal = test system: RXF 393 renal
TK-10 renal = test system: TK-10 renal
SK-MEL-28 melanoma = test system: SK-MEL-28 melanoma
HL-60(TB) leukemia = test system: HL-60(TB) leukemia
SNB-75 CNS = test system: SNB-75 CNS

`CC[C@@]1(O)C[C@H](OC2CC(N(C)C)C(OC3CC(O)C(OC4CCC(=O)C(C)O4)C(C)O3)C(C)O2)c2c(cc3c(c2O)C(=O)c2c(O)ccc(O)c2C3=O)[C@H]1C(=O)OC` (some centres undefined) was tested, and the TGI (HCT-15 colon) was 5.81 nM and 29.8 nM, the TGI (DU-145 prostate) was 38 nM and the TGI (MDA-N) was 2.59 nM. It also gave a GI50 (UACC-257 melanoma) of less than 0.1 nM, a TGI (PC-3 prostate) of 6.2 nM and a GI50 (A549 NSCLC) of 0.449 nM. For the same molecule, the GI50 (KM20L2 colon) was 0.0667 nM, the TGI (KM20L2 colon) was 78.1 nM and 41 nM and 200 nM and the TGI (DMS 273 small cell lung) was 14 nM and 19.8 nM. For the same molecule, the GI50 (NCI-H460 lung) was 0.0541 nM, the TGI (NCI-H460 lung) was 0.343 nM and < 0.1 nM and the TGI (HOP-92 NSCLC) was 35.3 nM and 71.3 nM and 92 nM. The TGI (UO-31 renal) was 0.508 nM and < 0.1 nM, the GI50 (DMS 114 small cell lung) was 0.291 nM and the TGI (DMS 114 small cell lung) was 22 nM and 30.6 nM and 34.7 nM. For the same molecule, the TGI (OVCAR-5 ovarian) was 22.1 nM and 65 nM, the GI50 (HOP-18 NSCLC) was 11700 nM and the TGI (HOP-18 NSCLC) was 24100 nM. For the same molecule, the GI50 (HCT-116 colon) was 0.054 nM, the TGI (HCT-116 colon) was less than 0.1 nM and the TGI (HT29 colon) was 16.2 nM [middle of 4 runs]. For the same molecule, the TGI (MCF7 breast) was 101 nM, the TGI (BT-549 breast) was 9.27 nM and 2.76 nM and the TGI (A498 renal) was 14.2 nM and 24.5 nM. The TGI (LOX IMVI melanoma) was 0.668 nM, the GI50 (SK-OV-3 ovarian) was 22.1 nM and the TGI (M14 melanoma) was 18.5 nM and 37.4 nM and 152 nM. For the same molecule, the TGI (UACC-62 melanoma) was 12 nM and 11.8 nM and 20.5 nM, the TGI (NCI-H226 lung) was 6.41 nM and 27.5 nM and the GI50 (LXFL 529 NSCLC) was 0.0112 nM. For the same molecule, the GI50 (SNB-78 CNS) was 3.11 nM, the TGI (SK-MEL-2 melanoma) was 16.6 nM and 19.8 nM and 24.3 nM and the TGI (ACHN renal) was 16.4 nM and 25.8 nM and 22.5 nM. For the same molecule, the TGI (T-47D breast) was 5.69 nM and 12.1 nM, the GI50 (M19-MEL melanoma) was 0.0125 nM and the TGI (M19-MEL melanoma) was 12.1 nM and 12.9 nM and 33.6 nM. The TGI (CCRF-CEM leukemia) was 12 nM and 47.8 nM, the TGI (DLD-1 colon) was 73.7 nM and the TGI (K-562 leukemia) was 119 nM. The TGI (KM12 colon) was 31.4 nM and 12.6 nM and 113 nM.
`Nc1ccc(-c2ccc(Nc3cc(S(=O)(=O)O)c(N)c4c3C(=O)c3ccccc3C4=O)cc2)c(S(=O)(=O)O)c1` gave a TGI (HCT-15 colon) greater than 100000 nM, a TGI (EKVX NSCLC) greater than 100000 nM and a TGI (MOLT-4 leukemia) greater than 100000 nM. The TGI (OVCAR-4 ovarian) was greater than 100000 nM, the TGI (DU-145 prostate) was greater than 100000 nM and the TGI (HCC-2998 colon) was greater than 100000 nM. For the same molecule, the TGI (SNB-19 CNS) was greater than 100000 nM, the TGI (COLO 205 colon) was greater than 100000 nM and the TGI (MDA-N) was greater than 100000 nM. It also gave a TGI (U251 CNS) greater than 100000 nM, a TGI (UACC-257 melanoma) greater than 100000 nM and a TGI (NCI-H522 lung) greater than 100000 nM. The TGI (SW-620 colon) was greater than 100000 nM, the TGI (PC-3 prostate) was greater than 100000 nM and the TGI (SN12C renal) was greater than 100000 nM. For the same molecule, the TGI (HOP-62 NSCLC) was greater than 100000 nM, the TGI (MDA-MB-435) was greater than 100000 nM and the TGI (A549 NSCLC) was greater than 100000 nM. It also gave a TGI (NCI-H23 lung) greater than 100000 nM, a TGI (SF-539 CNS) greater than 100000 nM and a TGI (SF-268 CNS) greater than 100000 nM. The TGI (RPMI-8226 leukemia) was greater than 100000 nM, the TGI (OVCAR-8 ovarian) was greater than 100000 nM and the TGI (NCI-H460 lung) was greater than 100000 nM. The TGI (SF-295 CNS) was greater than 100000 nM, the TGI (HOP-92 NSCLC) was greater than 100000 nM and the TGI (IGROV1 ovarian) was greater than 100000 nM. It also gave a TGI (UO-31 renal) greater than 100000 nM, a TGI (SR leukemia) greater than 100000 nM and a TGI (OVCAR-3 ovarian) greater than 100000 nM. For the same molecule, the TGI (MALME-3M melanoma) was greater than 100000 nM, the TGI (OVCAR-5 ovarian) was greater than 100000 nM and the TGI (NCI/ADR-RES ovarian) was greater than 100000 nM. The TGI (786-0 renal) was greater than 100000 nM, the TGI (HCT-116 colon) was greater than 100000 nM and the TGI (HT29 colon) was greater than 100000 nM. The TGI (CAKI-1 renal) was greater than 100000 nM, the TGI (MCF7 breast) was greater than 100000 nM and the TGI (SK-MEL-5 melanoma) was greater than 100000 nM. It also gave a TGI (BT-549 breast) greater than 100000 nM, a TGI (A498 renal) greater than 100000 nM and a TGI (LOX IMVI melanoma) greater than 100000 nM. The TGI (HS 578T breast) was greater than 100000 nM, the TGI (MDA-MB-231 breast) was greater than 100000 nM and the TGI (SK-OV-3 ovarian) was greater than 100000 nM. The TGI (RXF 393 renal) was greater than 100000 nM, the TGI (M14 melanoma) was greater than 100000 nM and the TGI (TK-10 renal) was greater than 100000 nM. It also gave a TGI (SK-MEL-28 melanoma) greater than 100000 nM, a TGI (UACC-62 melanoma) greater than 100000 nM and a TGI (NCI-H226 lung) greater than 100000 nM. The TGI (HL-60(TB) leukemia) was greater than 100000 nM, the TGI (SK-MEL-2 melanoma) was greater than 100000 nM and the TGI (ACHN renal) was greater than 100000 nM. It also gave a TGI (T-47D breast) greater than 100000 nM, a TGI (CCRF-CEM leukemia) greater than 100000 nM and a TGI (SNB-75 CNS) greater than 100000 nM. For the same molecule, the TGI (K-562 leukemia) was greater than 100000 nM and the TGI (KM12 colon) was greater than 100000 nM.
